Assay results as given in ChEMBL document CHEMBL3885881, “DrugMatrix”.

Organism: Rattus norvegicus
Experiment: DrugMatrix - Regimen: Daily Repeat
Type: toxicity, organism-based, Sprague-Dawley
Design: regimen Daily Repeat, gender Male, age 6-8 weeks
Settings: in vivo, po, 30 mg/kg, route oral GAVAGE, dose level Low, vehicle .5 % CMC; for ABSOLUTE BASOPHIL / ABSOLUTE EOSINOPHIL / ABSOLUTE LYMPHOCYTE / ABSOLUTE MONOCYTE / ABSOLUTE SEGMENTED NEUTROPHIL / BASOPHIL / EOSINOPHIL / ERYTHROCYTE COUNT / HEMATOCRIT / HEMOGLOBIN / LEUKOCYTE COUNT / LYMPHOCYTE / MEAN CORPUSCULAR HEMOGLOBIN / MEAN CORPUSCULAR HEMOGLOBIN CONCENTRATION / MEAN CORPUSCULAR VOLUME / MONOCYTE / NEUTROPHIL / NUCLEATED RED BLOOD CELLS / PLATELET COUNT: tissue Blood; for ALANINE AMINOTRANSFERASE / ALBUMIN / ALKALINE PHOSPHATASE / ASPARTATE AMINOTRANSFERASE / BLOOD UREA NITROGEN / CARBON DIOXIDE / CHLORIDE / CHOLESTEROL / CREATINE PHOSPHOKINASE / CREATININE / GLUCOSE / LACTATE DEHYDROGENASE / LIPASE / PHOSPHORUS / POTASSIUM / SODIUM / TOTAL BILIRUBIN / TOTAL PROTEIN / URIC ACID: tissue Plasma

COc1ccc(/C=C/C(=O)Nc2ccccc2C(=O)O)cc1OC
ABSOLUTE BASOPHIL (72 h, time 3 day): 0 CELLS/uL
ABSOLUTE EOSINOPHIL (72 h, time 3 day): 217.33 CELLS/uL
ABSOLUTE LYMPHOCYTE (72 h, time 3 day): 12060 CELLS/uL
ABSOLUTE MONOCYTE (72 h, time 3 day): 0 CELLS/uL
ABSOLUTE SEGMENTED NEUTROPHIL (72 h, time 3 day): 1122.67 CELLS/uL
BASOPHIL (72 h, time 3 day): 0%
EOSINOPHIL (72 h, time 3 day): 1.67%
ERYTHROCYTE COUNT (72 h, time 3 day): 5.52 x10E6/uL
HEMATOCRIT (72 h, time 3 day): 34.6%
HEMOGLOBIN (72 h, time 3 day): 13.1 G/DL
LEUKOCYTE COUNT (72 h, time 3 day): 13.4 x10E3/uL
LYMPHOCYTE (72 h, time 3 day): 90%
MEAN CORPUSCULAR HEMOGLOBIN (72 h, time 3 day): 23.77 pg
MEAN CORPUSCULAR HEMOGLOBIN CONCENTRATION (72 h, time 3 day): 37.9 G/DL
MEAN CORPUSCULAR VOLUME (72 h, time 3 day): 62.73 fL
MONOCYTE (72 h, time 3 day): 0%
NEUTROPHIL (72 h, time 3 day): 8.33%
NUCLEATED RED BLOOD CELLS (72 h, time 3 day): 0 /100WBC
PLATELET COUNT (72 h, time 3 day): 1155.33 x10E3/uL
ALANINE AMINOTRANSFERASE (72 h, time 3 day): 48.67 u/L
ALBUMIN (72 h, time 3 day): 4.13 G/DL
ALKALINE PHOSPHATASE (72 h, time 3 day): 344.33 u/L
ASPARTATE AMINOTRANSFERASE (72 h, time 3 day): 77 u/L
BLOOD UREA NITROGEN (72 h, time 3 day): 14.67 mg/dL
CARBON DIOXIDE (72 h, time 3 day): 23.67 mmol/L
CHLORIDE (72 h, time 3 day): 103.67 MEQ/L
CHOLESTEROL (72 h, time 3 day): 71 mg/dL
CREATINE PHOSPHOKINASE (72 h, time 3 day): 180 u/L
CREATININE (72 h, time 3 day): 0.19 mg/dL
GLUCOSE (72 h, time 3 day): 159.67 mg/dL
LACTATE DEHYDROGENASE (72 h, time 3 day): 96.67 u/L
LIPASE (72 h, time 3 day): 8 u/L
PHOSPHORUS (72 h, time 3 day): 12.47 mg/dL
POTASSIUM (72 h, time 3 day): 5.88 MEQ/L
SODIUM (72 h, time 3 day): 144.63 MEQ/L
TOTAL BILIRUBIN (72 h, time 3 day): 0.17 mg/dL
TOTAL PROTEIN (72 h, time 3 day): 5.67 G/DL
URIC ACID (72 h, time 3 day): 1.47 mg/dL
ABSOLUTE BASOPHIL (120 h, time 5 day): 0 CELLS/uL
ABSOLUTE EOSINOPHIL (120 h, time 5 day): 278.67 CELLS/uL
ABSOLUTE LYMPHOCYTE (120 h, time 5 day): 14764.67 CELLS/uL
ABSOLUTE MONOCYTE (120 h, time 5 day): 0 CELLS/uL
ABSOLUTE SEGMENTED NEUTROPHIL (120 h, time 5 day): 1590 CELLS/uL
BASOPHIL (120 h, time 5 day): 0%
EOSINOPHIL (120 h, time 5 day): 1.67%
ERYTHROCYTE COUNT (120 h, time 5 day): 5.36 x10E6/uL
HEMATOCRIT (120 h, time 5 day): 34.2%
HEMOGLOBIN (120 h, time 5 day): 13.03 G/DL
LEUKOCYTE COUNT (120 h, time 5 day): 16.63 x10E3/uL
LYMPHOCYTE (120 h, time 5 day): 88.67%
MEAN CORPUSCULAR HEMOGLOBIN (120 h, time 5 day): 24.4 pg
MEAN CORPUSCULAR HEMOGLOBIN CONCENTRATION (120 h, time 5 day): 38.1 G/DL
MEAN CORPUSCULAR VOLUME (120 h, time 5 day): 63.97 fL
MONOCYTE (120 h, time 5 day): 0%
NEUTROPHIL (120 h, time 5 day): 9.67%
NUCLEATED RED BLOOD CELLS (120 h, time 5 day): 0.33 /100WBC
PLATELET COUNT (120 h, time 5 day): 1260.33 x10E3/uL
ALANINE AMINOTRANSFERASE (120 h, time 5 day): 59 u/L
ALBUMIN (120 h, time 5 day): 4.5 G/DL
ALKALINE PHOSPHATASE (120 h, time 5 day): 404 u/L
ASPARTATE AMINOTRANSFERASE (120 h, time 5 day): 84.33 u/L
BLOOD UREA NITROGEN (120 h, time 5 day): 18.33 mg/dL
CARBON DIOXIDE (120 h, time 5 day): 25.33 mmol/L
CHLORIDE (120 h, time 5 day): 103 MEQ/L
CHOLESTEROL (120 h, time 5 day): 75.67 mg/dL
CREATINE PHOSPHOKINASE (120 h, time 5 day): 221 u/L
CREATININE (120 h, time 5 day): 0.18 mg/dL
GLUCOSE (120 h, time 5 day): 161.67 mg/dL
LACTATE DEHYDROGENASE (120 h, time 5 day): 269 u/L
LIPASE (120 h, time 5 day): 9 u/L
PHOSPHORUS (120 h, time 5 day): 12.57 mg/dL
POTASSIUM (120 h, time 5 day): 6.47 MEQ/L
SODIUM (120 h, time 5 day): 145.07 MEQ/L
TOTAL BILIRUBIN (120 h, time 5 day): 0.1 mg/dL
TOTAL PROTEIN (120 h, time 5 day): 6.03 G/DL
URIC ACID (120 h, time 5 day): 1.6 mg/dL
